Counter-ions that a name gives are not always drawn. Like-named read-outs stand apart in the source and are kept apart here.
Experiments:
BT-549 cells = assay: Cell-based assay, cellular growth (Cell Counting Kit-8, 72 hours); settings: Homo sapiens, BT549 cells
Protocol: (§1) 100 micro-L of cell suspension was seeded onto 96-well microtiter plate (ViewPlate-96FTC, PerkinElmer). […] Cellular growth was determined using Cell Counting Kit-8 (DOJINDO) at 72 hours after the exposure of the candidate inhibitors. […] Accurate IC50 values were calculated as described previously.

T47D cells = assay: as above
Protocol: as §1

A549 cells = assay: as above
Protocol: as §1

PBK = PBK (Homo sapiens (Human), UniProt Q96KB5); assay: Kinase assay (IMAP fluorescence polarization, FITC-labeled histone H3 peptide); assay type: biochemical
PBK, sequence (Q96KB5 whole entry): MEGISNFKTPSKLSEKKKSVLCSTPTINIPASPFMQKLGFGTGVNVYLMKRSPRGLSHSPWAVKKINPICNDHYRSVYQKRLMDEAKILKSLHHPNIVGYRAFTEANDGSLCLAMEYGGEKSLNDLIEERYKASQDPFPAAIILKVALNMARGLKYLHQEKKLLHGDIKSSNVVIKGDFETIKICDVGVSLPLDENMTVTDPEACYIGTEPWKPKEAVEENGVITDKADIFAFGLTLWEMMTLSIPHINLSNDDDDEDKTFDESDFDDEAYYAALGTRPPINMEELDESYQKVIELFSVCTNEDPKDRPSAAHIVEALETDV
Protocol: PBK activity was determined in the presence or absence of compounds using fluorescein isothiocyanate-labeled (FITC-labeled) histone H3 peptide as a substrate. […] The serially diluted compounds, 0.8 ng/micro-L PBK (Carna Biosciences) and 100 nM FITC-labeled histone H3 peptide were reacted in a reaction buffer (20 mM HEPES, 0.01% Tween-20, 0.3 mM MgCl2, 2 mM dithiothreitol, 50 micro-M ATP, pH 7.4) at room temperature for 1 hour. The reaction was stopped by the addition of three fold assay volume of progressive binding solution. […] IC50 values were calculated by nonlinear four parameter fit using SigmaPlot, version 10.0 (Systat Software, Inc.).

HT-1197 cells = assay: Cell-based assay, cellular growth (Cell Counting Kit-8, 72 hours), PBK-negative control cells
Protocol: as §1

[1] = PBK 0.8 ng/micro-L, 50 micro-M ATP, 100 nM FITC-labeled histone H3 peptide, room temperature 1 hour
[2] = Homo sapiens, HT1197 cells (PBK-negative control)
[3] = PBK 0.8 ng/micro-L, 50 micro-M ATP, 100 nM FITC-labeled histone H3 peptide, room temperature 1 hour, hydrobromide
[4] = HT1197 cells (PBK-negative control), hydrobromide

Compound	IC50 (BT-549 cells)	IC50 (T47D cells; Homo sapiens, T47D, 72 h)	IC50 (A549 cells; Homo sapiens, A549, 72 h)	IC50 (PBK; [1])	IC50 (PBK)	IC50 (HT-1197 cells; Homo sapiens, HT1197, 72 h)	further results
CC(N)c1ccc(-c2c(O)cc(Cl)c3[nH]c(=O)c4sccc4c23)cc1 (stereo not drawn) [Compound 1041, 9-(4-(1-aminoethyl)phenyl)-6-chloro-8-hydroxythieno[2,3-c]quinolin-4(5H)-one hydrochloride]	190 nM	340 nM	160 nM		12 nM	650 nM	
CN[C@H](C)c1ccc(-c2c(O)ccc3[nH]c(=O)c4sccc4c23)cc1 [Compound 1052, (R)-8-hydroxy-9-(4-(1-(methylamino)ethyl)phenyl)thieno[2,3-c]quinolin-4(5H)-one hydrochloride]	170 nM	320 nM	170 nM	1.3 nM		450 nM	
C[C@@H](N)c1ccc(-c2c(O)cc(Cl)c3[nH]c(=O)c4sccc4c23)cc1 [Compound 1081, (R)-9-(4-(1-aminoethyl)phenyl)-6-chloro-8-hydroxythieno[2,3-c]quinolin-4(5H)-one hydrochloride]	86 nM	170 nM	100 nM		8.6 nM	390 nM	
CC(CN(C)C)c1ccc(-c2c(O)ccc3[nH]c(=O)c4sccc4c23)cc1 (stereo not drawn) [Compound 1112, 9-(4-(1-(dimethylamino)propan-2-yl)phenyl)-8-hydroxythieno[2,3-c]quinolin-4(5H)-one hydrochloride]	210 nM				3.3 nM		IC50 (T47D cells; Homo sapiens): 470 nM; IC50 (A549 cells; Homo sapiens): 250 nM; IC50 (HT-1197 cells; [2]): 640 nM
NCCc1ccc(-c2c(O)cc(Cl)c3[nH]c(=O)c4sccc4c23)cc1 [Compound 1133, 9-(4-(2-aminoethyl)phenyl)-6-chloro-8-hydroxythieno[2,3-c]quinolin-4(5H)-one hydrochloride]	150 nM	230 nM	180 nM		20 nM	870 nM	
COc1ccc2[nH]c(=O)c3sccc3c2c1-c1ccc(S(=O)(=O)NCCCl)cc1 [Compound 1139, N-(2-chloroethyl)-4-(8-methoxy-4-oxo-4,5-dihydrothieno[2,3-c]quinolin-9-yl)benzenesulfonamide]	17 nM			70 nM			IC50 (T47D cells; Homo sapiens): 200 nM; IC50 (A549 cells; Homo sapiens): 23 nM; IC50 (HT-1197 cells; [2]): 14000 nM
NCCc1ccc(-c2c(O)cc(Br)c3[nH]c(=O)c4sccc4c23)cc1 [Compound 1142, 9-(4-(2-aminoethyl)phenyl)-6-bromo-8-hydroxythieno[2,3-c]quinolin-4(5H)-one hydrochloride]	170 nM	250 nM	210 nM	45 nM		1000 nM	
COc1ccc2[nH]c(=O)c3sccc3c2c1-c1ccc([C@@H](C)CN)cc1 [Compound 1161, (R)-9-(4-(1-aminopropan-2-yl)phenyl)-8-methoxythieno[2,3-c]quinolin-4(5H)-one hydrochloride]	220 nM	450 nM	270 nM	2 nM		820 nM	
COc1ccc2[nH]c(=O)c3sccc3c2c1-c1ccc(C(C)CN)c(F)c1 (stereo not drawn) [Compound 1179, 9-(4-(1-aminopropan-2-yl)-3-fluorophenyl)-8-methoxythieno[2,3-c]quinolin-4(5H)-one hydrochloride]	450 nM	860 nM	630 nM	3 nM		1900 nM	
C[C@@H](CN(C)C)c1ccc(-c2c(O)ccc3[nH]c(=O)c4sccc4c23)cc1 [Compound 1188, (R)-9-(4-(1-(dimethylamino)propan-2-yl)phenyl)-8-hydroxythieno[2,3-c]quinolin-4(5H)-one hydrochloride]	160 nM				2.5 nM		IC50 (T47D cells; Homo sapiens): 290 nM; IC50 (A549 cells; Homo sapiens): 160 nM; IC50 (HT-1197 cells; [2]): 430 nM
Cc1cc(O)c(-c2ccc([C@H](C)CN)c(F)c2)c2c1[nH]c(=O)c1sccc12 [Compound 1304, (S)-9-(4-(1-aminopropan-2-yl)-3-fluorophenyl)-8-hydroxy-6-methylthieno[2,3-c]quinolin-4(5H)-one hydrobromide]							IC50 (T47D cells; hydrobromide): 120 nM; IC50 (A549 cells; hydrobromide): 99 nM; IC50 (PBK; [3]): 13 nM; IC50 (HT-1197 cells; [4]): 340 nM
CNC[C@H](C)c1ccc(-c2c(O)cc(C)c3[nH]c(=O)c4sccc4c23)cc1 [Compound 1306, (R)-8-hydroxy-6-methyl-9-(4-(1-(methylamino)propan-2-yl)phenyl)thieno[2,3-c]quinolin-4(5H)-one hydrochloride]							IC50 (T47D cells; hydrochloride): 35 nM; IC50 (A549 cells; hydrochloride): 20 nM; IC50 (PBK; PBK 0.8 ng/micro-L, 50 micro-M ATP, 100 nM FITC-labeled histone H3 peptide, room temperature 1 hour, hydrochloride): 7.3 nM; IC50 (HT-1197 cells; HT1197 cells (PBK-negative control), hydrochloride): 73 nM
Cc1cc(O)c(-c2ccc([C@@H](C)CN)c(F)c2)c2c1[nH]c(=O)c1sccc12 [Compound 1319, (R)-9-(4-(1-aminopropan-2-yl)-3-fluorophenyl)-8-hydroxy-6-methylthieno[2,3-c]quinolin-4(5H)-one hydrobromide]							IC50 (T47D cells; hydrobromide): 16 nM; IC50 (A549 cells; hydrobromide): 14 nM; IC50 (PBK; [3]): 3.4 nM; IC50 (HT-1197 cells; [4]): 54 nM
Cc1cc(O)c(-c2ccc([C@@H](C)CN(C)C)cc2)c2c1[nH]c(=O)c1sccc12 [Compound 1324, (R)-9-(4-(1-(dimethylamino)propan-2-yl)phenyl)-8-hydroxy-6-methylthieno[2,3-c]quinolin-4(5H)-one hydrochloride]	30 nM						IC50 (T47D cells; Homo sapiens): 66 nM; IC50 (A549 cells; Homo sapiens): 24 nM
CCN(C)C[C@H](C)c1ccc(-c2c(O)cc(C)c3[nH]c(=O)c4sccc4c23)cc1 [Compound 1379, (R)-9-(4-(1-(ethyl(methyl)amino)propan-2-yl)phenyl)-8-hydroxy-6-methylthieno[2,3-c]quinolin-4(5H)-one hydrochloride]		280 nM	110 nM		76 nM	310 nM	
CC[C@@H](CNC)c1ccc(-c2c(O)cc(C)c3[nH]c(=O)c4sccc4c23)cc1 [Compound 1380, (R)-8-hydroxy-6-methyl-9-(4-(1-(methylamino)butan-2-yl)phenyl)thieno[2,3-c]quinolin-4(5H)-one hydrochloride]		240 nM	96 nM		85 nM	370 nM	
Cc1cc(O)c(-c2ccc([C@H](C)CN(C)C)c(F)c2)c2c1[nH]c(=O)c1sccc12 [Compound 1399, (S)-9-(4-(1-(dimethylamino)propan-2-yl)-3-fluorophenyl)-8-hydroxy-6-methylthieno[2,3-c]quinolin-4(5H)-one hydrochloride]		450 nM	180 nM		58 nM	470 nM	

The next lines start with results.

IC50 (BT-549 cells)	IC50 (T47D cells; Homo sapiens, T47D, 72 h)	IC50 (A549 cells; Homo sapiens, A549, 72 h)	IC50 (PBK; [1])	Compound	IC50 (PBK)	IC50 (HT-1197 cells; Homo sapiens, HT1197, 72 h)	further results
140 nM	290 nM	110 nM	42 nM	C[C@H](c1ccc(-c2c(O)cc(Cl)c3[nH]c(=O)c4sccc4c23)cc1)N(C)C [Compound 1126, (R)-6-chloro-9-(4-(1-(dimethylamino)ethyl)phenyl)-8-hydroxythieno [2,3-c]quinolin-4(5H)-one hydrochloride]		320 nM	
97 nM	190 nM	90 nM	14 nM	CN[C@H](C)c1ccc(-c2c(O)cc(Cl)c3[nH]c(=O)c4sccc4c23)cc1 [Compound 1132, (R)-6-chloro-8-hydroxy-9-(4-(1-(methylamino)ethyl)phenyl)thieno[2,3-c]quinolin-4(5H)-one hydrochloride]		320 nM	
32 nM	57 nM	35 nM	8.6 nM	CC(CN)c1ccc(-c2c(O)cc(Cl)c3[nH]c(=O)c4sccc4c23)cc1 (stereo not drawn) [Compound 1136, 9-(4-(1-aminopropan-2-yl)phenyl)-6-chloro-8-hydroxythieno[2,3-c]quinolin-4(5H)-one hydrochloride]		180 nM	
13 nM	26 nM	17 nM	4.4 nM	C[C@@H](CN)c1ccc(-c2c(O)cc(Cl)c3[nH]c(=O)c4sccc4c23)cc1 [Compound 1166, (R)-9-(4-(1-aminopropan-2-yl)phenyl)-6-chloro-8-hydroxythieno[2,3-c]quinolin-4(5H)-one hydrochloride]		120 nM	
24 nM	38 nM	27 nM	17 nM	C[C@@H](CN)c1ccc(-c2c(O)cc(Br)c3[nH]c(=O)c4sccc4c23)cc1 [Compound 1176, (R)-9-(4-(1-aminopropan-2-yl)phenyl)-6-bromo-8-hydroxythieno[2,3-c]quinolin-4(5H)-one hydrochloride]		100 nM	
190 nM	190 nM	200 nM	1.3 nM	CNC[C@H](C)c1ccc(-c2c(O)ccc3[nH]c(=O)c4sccc4c23)cc1 [Compound 1187, (R)-8-hydroxy-9-(4-(1-(methylamino)propan-2-yl)phenyl)thieno[2,3-c]quinolin-4(5H)-one hydrochloride]		320 nM	
	1400 nM	900 nM	60 nM	Cc1cc(O)c(-c2ccc(N(C)CCN)cc2)c2c1[nH]c(=O)c1sccc12 [Compound 1400, 9-(4-((2-aminoethyl)(methyl)amino)phenyl)-8-hydroxy-6-methylthieno[2,3-c]quinolin-4(5H)-one hydrochloride]		2800 nM	

— US8962648B2, “Tricyclic compounds and PBK inhibitors containing the same” (OncoTherapy Science, Inc., priority 2010, dated 2015)
